This passage reports active concentration results from PubChem BioAssay AID977613 (Broad Institute, 2014).

Molecules are shown by their SMILES. The source made the active and inactive calls. The rule behind the calls is not given here.

The subject of the test is Broad 7084-01 inhibitor HTS, set 2. Briefly: inhibitors in Broad screen 7084-01, set 2 (AID 977613).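 Note: host cells are infected with parasite promastigotes that become internalized.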

`COc1ccc(-c2ccc([C@@H]3[C@H]4CN(C(=O)Cc5ccncc5)CCCCN4[C@H]3CO)cc2)cc1`: the active concentration is > 10 µM (inactive).

`CN(C)C(=O)c1cccc(-c2ccc([C@H]3[C@H]4CN(CC5CCOCC5)CCCCN4[C@H]3CO)cc2)c1`: the active concentration was > 10 µM (inactive). The same measure for `COc1cccc(NC(=O)Nc2ccc3c(c2)C(=O)N(C)[C@H]2CC[C@H](CC(=O)NCCc4ccccc4)O[C@@H]2CO3)c1`: > 10 µM (inactive); for `O=S(=O)(c1ccccc1)N1CCCCN2[C@@H](CO)[C@H](c3ccc(C#CC4CCCC4)cc3)[C@@H]2C1`: > 10 µM (inactive); for `O=C1CNC[C@H]2[C@@H](c3ccc(C4=CCCC4)cc3)[C@H](CO)N12`: > 10 µM (inactive).

Turning to `CCC(=O)N1[C@H](CO)[C@H](c2ccccc2)C12CN(C(=O)c1ccc3c(c1)OCO3)C2`, the active concentration was > 10 µM (inactive). On to `O=C(C[C@@H]1CC[C@H]2[C@@H](COC[C@H](O)CN2S(=O)(=O)c2cccc(F)c2)O1)Nc1ccc(-c2ccccc2)cc1`, for which the active concentration is > 10 µM (inactive). The same measure for `CN1CCCCN2[C@H](CO)[C@@H](c3ccc(-c4ccc(F)cc4)cc3)[C@@H]2C1`: > 10 µM (inactive); for `O=C1CNC[C@H]2[C@@H](c3ccc(-c4ccccc4F)cc3)[C@H](CO)N12`: > 10 µM (inactive); for `O=C(C[C@@H]1CC[C@H]2[C@@H](COC[C@@H](O)CN2C(=O)Nc2cc(Cl)cc(Cl)c2)O1)NCC1CCCCC1`: > 10 µM (inactive). The same measure for `COc1ccccc1-c1ccccc1[C@@H]1[C@@H](C#N)N(C(=O)C2CCOCC2)[C@H]1CO`: > 10 µM (inactive); for `Cc1cccc(S(=O)(=O)N2C[C@H](O)COC[C@@H]3O[C@@H](CC(=O)Nc4ccccc4)CC[C@H]32)c1`: > 10 µM (inactive); for `O=C(C[C@H]1CC[C@@H]2[C@H](COC[C@H](O)CN2C(=O)Nc2ccc(Cl)c(Cl)c2)O1)NCc1ccc(Cl)cc1`: > 10 µM (inactive). As to `COc1ccc2c3c([nH]c2c1)[C@@H](CO)N(Cc1ccccc1OC)CC31CN(C(C)=O)C1`, the active concentration is > 10 µM (inactive). In the case of `COc1ccccc1CN1[C@H](CO)[C@H]2c3ccccc3N(C(=O)C3CCCCC3)C[C@H]21`, the active concentration is > 10 µM (inactive). The same measure for `CCS(=O)(=O)Nc1ccc2c(c1)C(=O)N(C)[C@H]1CC[C@@H](CC(=O)NCCOC)O[C@H]1CO2`: > 10 µM (inactive); for `CC(C)NC(=O)N1CC2(C1)[C@H](c1ccccc1)[C@@H](CO)N2CCC(F)(F)F`: > 10 µM (inactive).

Regarding `N#C[C@H]1[C@H](c2ccccc2-c2ccc(F)cc2)[C@@H](CO)N1C(=O)Cc1cccnc1`, the active concentration is > 10 µM (inactive). The same measure for `O=C(C1CCCCC1)N1CC2(C1)[C@H](c1ccccc1)[C@@H](CO)N2C(=O)c1cccnc1`: > 10 µM (inactive); for `COc1ccc2c3c(n(C)c2c1)[C@@H](CO)N(CC1CCCC1)CC31CN(C(=O)Nc2ccccc2)C1`: > 10 µM (inactive); for `Cc1cccc(S(=O)(=O)N2CC[C@@H]3[C@H](CO)Nc4ccc(C#Cc5ccccc5F)cc4[C@@H]32)c1`: > 10 µM (inactive). With `Cc1ccccc1S(=O)(=O)N1CCCCN2[C@H](CO)[C@@H](c3ccc(C#CCN(C)C)cc3)[C@H]2C1`, the active concentration was > 10 µM (inactive). On to `COc1ccccc1-c1ccc([C@@H]2[C@@H](CO)N(CC3CC3)C23CN(S(C)(=O)=O)C3)cc1`, for which the active concentration was > 10 µM (inactive). For `CN(C)C(=O)C[C@@H]1CC[C@@H]2[C@H](COC[C@H](O)CN2CC2CCCC2)O1`, the active concentration is > 10 µM (inactive). For the compound `O=C(Nc1ccc(F)cc1)N1[C@@H](CO)[C@@H]2c3ccccc3NC[C@@H]21`, the active concentration is > 10 µM (inactive). For `O=C1CN(S(=O)(=O)Cc2ccccc2)C[C@@H]2[C@H](c3ccc(C#Cc4ccccc4)cc3)[C@@H](CO)N12`, the active concentration was > 10 µM (inactive). On to `CN1C(=O)c2cc(NS(C)(=O)=O)ccc2OC[C@H]2O[C@@H](CC(=O)NC3CCCCC3)CC[C@@H]21`, for which the active concentration is > 10 µM (inactive). With `O=C(C[C@@H]1CC[C@H]2[C@@H](COC[C@@H](O)CN2C(=O)Cc2ccccc2)O1)NC1CCCC1`, the active concentration was > 10 µM (inactive). Turning to `O=C(C1CCOCC1)N1CC2(C1)[C@H](c1ccccc1)[C@H](CO)N2CCC(F)(F)F`, the active concentration was > 10 µM (inactive).

Regarding `O=C(NC1Cc2ccccc2C1)[C@H]1N[C@H]2c3cccc(=O)n3C[C@H]2[C@@H]1CO`, the active concentration was > 10 µM (inactive).

For `O=C(c1cccc(F)c1)N1CCCCN2[C@@H](CO)[C@@H](c3ccc(C#CC4(O)CCCC4)cc3)[C@@H]2C1`, the active concentration was > 10 µM (inactive). Consider `O=C(C[C@H]1CC[C@H]2[C@@H](COC[C@H](O)CN2C(=O)Nc2cc(Cl)cc(Cl)c2)O1)NCC1CCCCC1`, for which the active concentration is > 10 µM (inactive). The same measure for `CN(C)C(=O)[C@@H]1[C@@H](CO)[C@@H]2Cn3c(cccc3=O)[C@@H]2N1C(=O)C1CCC1`: > 10 µM (inactive). `N#C[C@@H]1[C@H](c2ccccc2-c2ccccc2)[C@@H](CO)N1C(=O)Cc1ccncc1`: the active concentration was > 10 µM (inactive). In the case of `O=C(CN1CCOCC1)N1CC(=O)N2[C@H](C1)[C@@H](c1ccc(-c3cccc(F)c3)cc1)[C@@H]2CO`, the active concentration is > 10 µM (inactive).

As for `O=C([C@H]1[C@H](CO)[C@H]2Cn3c(ccc(-c4ccccc4F)c3=O)[C@@H]1N2C(=O)C1CCC1)N1CCCCC1`, the active concentration was > 10 µM (inactive). With `O=C(C[C@@H]1CC[C@@H]2NC[C@@H](O)COC[C@H]2O1)NCCN1CCCC1`, the active concentration is > 10 µM (inactive). The same measure for `O=C(c1ccncc1)N1CC2(C1)[C@@H](c1ccccc1)[C@@H](CO)N2CC1CCOCC1`: > 10 µM (inactive); for `COc1ccc(C#Cc2ccc([C@@H]3[C@@H](CO)N4C(=O)CN(C(=O)c5ccc(F)cc5)C[C@@H]34)cc2)cc1`: > 10 µM (inactive). The same measure for `COc1ccc(CN2[C@H](CO)[C@H]3c4ccccc4N(C(=O)Nc4ccc(F)cc4)C[C@H]32)cc1`: > 10 µM (inactive); for `CN(C)C(=O)C[C@@H]1CC[C@H]2[C@@H](COC[C@H](O)CN2C(=O)C2CC2)O1`: > 10 µM (inactive).

In the case of `Cc1cccc(S(=O)(=O)N2C[C@@H](O)COC[C@H]3O[C@@H](CC(=O)Nc4ccccc4)CC[C@@H]32)c1`, the active concentration was > 10 µM (inactive). As for `CCS(=O)(=O)N1CCC2(CC1)CN[C@@H](CO)c1[nH]c3cc(OC)ccc3c12`, the active concentration was > 10 µM (inactive). With `OC[C@@H]1[C@@H](c2ccc(C#CC3(O)CCCC3)cc2)[C@@H]2CN(Cc3cncnc3)CCCCN12`, the active concentration was > 10 µM (inactive). Regarding `COc1ccccc1-c1ccccc1[C@@H]1[C@H](C#N)N(C(=O)C2CCOCC2)[C@H]1CO`, the active concentration was > 10 µM (inactive). The same measure for `COc1ccc2c3c(n(C)c2c1)[C@@H](CO)N(S(=O)(=O)c1ccc(C)cc1)CC31CN(C(=O)c2ccccn2)C1`: > 10 µM (inactive). For the compound `O=C1CNC[C@@H]2[C@H](c3ccc(-c4ccccc4F)cc3)[C@@H](CO)N12`, the active concentration was > 10 µM (inactive). For `CN1C[C@@H](O)COC[C@@H]2O[C@@H](CC(=O)NC3CCCC3)CC[C@H]21`, the active concentration was > 10 µM (inactive).

Turning to `O=C1CNC[C@@H]2[C@@H](c3ccc(-c4ccccc4F)cc3)[C@H](CO)N12`, the active concentration was > 10 µM (inactive).

Consider `O=C(c1ccccc1F)N1CC(=O)N2[C@H](CO)[C@@H](c3ccc(C#Cc4ccccc4)cc3)[C@H]2C1`, for which the active concentration was > 10 µM (inactive). The same measure for `O=C1CNC[C@@H]2[C@@H](c3ccc(-c4ccccc4F)cc3)[C@@H](CO)N12`: > 10 µM (inactive).

For `O=C(NCCCN1CCOCC1)[C@@H]1[C@@H](CO)[C@@H]2Cn3c(ccc(C4=CCCCC4)c3=O)[C@H]1N2`, the active concentration was > 10 µM (inactive).

Regarding `CC(C)C#Cc1ccc([C@@H]2[C@@H](CO)N3C(=O)CN(C(=O)Cc4ccccc4)C[C@H]23)cc1`, the active concentration is > 10 µM (inactive).

Take `C/C=C/c1ccc([C@H]2[C@@H](CO)N3C(=O)CN(S(=O)(=O)c4ccccc4)C[C@@H]23)cc1`: the active concentration is > 10 µM (inactive). For the compound `CC=Cc1ccc2n(c1=O)C[C@H]1[C@H](CO)[C@@H](C(=O)Nc3ccccc3)N(CC3CCCC3)[C@@H]21` (mixture of isomers), the active concentration is > 10 µM (inactive). Take `CCC(=O)N1[C@@H](CO)[C@@H](c2ccccc2)C12CN(C(=O)c1ccc3c(c1)OCO3)C2`: the active concentration was > 10 µM (inactive).

Take `O=C(C1CCC1)N1[C@H](CO)[C@@H](c2ccccc2)C12CN(CCC(F)(F)F)C2`: the active concentration was > 10 µM (inactive).

As for `O=C(CC1CC1)N1[C@H](CO)[C@@H](c2ccccc2)C12CN(Cc1ccccc1F)C2`, the active concentration is > 10 µM (inactive). For `COc1cccc(S(=O)(=O)N2CC3(CCN(C)CC3)c3c([nH]c4cc(OC)ccc34)[C@@H]2CO)c1`, the active concentration was > 10 µM (inactive). `O=C(c1ccccc1F)N1CC[C@H]2[C@H](CO)Nc3ccc(Br)cc3[C@H]21`: the active concentration was > 10 µM (inactive). Consider `COC(=O)C[C@@H]1CC[C@@H]2[C@H](COc3ccc(NS(=O)(=O)c4ccccc4Cl)cc3C(=O)N2C)O1`, for which the active concentration was > 10 µM (inactive). `O=C(C[C@H]1CC[C@H]2[C@@H](COC[C@@H](O)CN2Cc2ccc(Cl)cc2)O1)NCc1ccccc1Cl`: the active concentration is > 10 µM (inactive). With `COc1ccc2c3c([nH]c2c1)[C@@H](CO)NCC31CN(C(=O)Nc2ccc3c(c2)OCO3)C1`, the active concentration is > 10 µM (inactive). The same measure for `Cn1cnc(S(=O)(=O)N2C[C@@H](O)COC[C@H]3O[C@H](CC(=O)NC4CCCC4)CC[C@@H]32)c1`: > 10 µM (inactive).

`CCNC(=O)Nc1ccc2c(c1)C(=O)N(C)[C@H]1CC[C@@H](CC(=O)N[C@@H](C)c3ccccc3)O[C@H]1CO2`: the active concentration was > 10 µM (inactive).
